In US8367098B2, “Unique combinations of antimicrobial compositions” (The Population Council, Inc., priority 2002, dated 2013):

What was measured:
[1] = in vivo, po; cited from earlier work
[2] = in vivo; cited from earlier work
[3] = Diffusion of NES through dialysis membrane (HPLC); type: physicochemical; conditions: membrane cutoff 1000, HPLC
Description: We examined diffusion of NES through a dialysis membrane with a molecular weight cutoff of 1000. The molecular weight of NES is 370. […] Results are illustrated in FIG. 10. […] However, the rate of diffusion observed through the dialysis membrane cannot be related to the rate of diffusion that would be observed in the human vagina as the rate of diffusion was dependant on the surface area of the dialysis bag. Conditions in the vagina would be different.
Diffusion of NES from CARRA/NES was investigated by two different methods, membrane dialysis and Ultrafree-15 centrifugation. In the membrane dialysis experiments, the membrane cutoff is 1,000, and diffusion of NES was measured by HPLC. […] In the Ultrafree-15 centrifugation experiments, a Millipore, Ultrafree-15 centrifugal filter and tube assembly was employed, which allows the passage of molecules of a MW<500 pass through; NES MW is 370.

HIV-1 = conditions: p24 ELISA and RT; cited from earlier work

Row | Compound | effect on HIV-1 production (HIV-1) | other results
1 | Carrageenan |  | absorption from the gastrointestinal tract [1]: virtually non-existent; toxicity by oral, dermal, and inhalation routes [2]: non-toxic
2 | C=C1C[C@H]2[C@@H]3CCC4=CC(=O)CC[C@@H]4[C@H]3CC[C@]2(C)[C@@]1(OC(C)=O)C(C)=O [NES, 16-methylene-17α-acetoxy-19-norpregn-4-ene-3,20-dione] |  | diffusion of NES through dialysis membrane [3]: diffused from the dialysis bag at a constant rate
3 | [Cl][Hg][Cl] [mercury chloride] | inhibited HIV-1 production | 
4 | CC(=O)[O-].CC(=O)[O-].[Cd+2] [cadmium acetate] | inhibited HIV-1 production | 
5 | [Cl-].[Cl-].[Zn+2] [zinc chloride] | inhibited HIV-1 production | 
